Measured values published in US6713505B2, “spla2 inhibitors” (Eli Lilly and Company, priority 2000, dated 2004).

Target: T1, recombinant human secreted phospholipase A2 (Homo sapiens, UniProt P14555)
T1 sequence (P14555 21-144): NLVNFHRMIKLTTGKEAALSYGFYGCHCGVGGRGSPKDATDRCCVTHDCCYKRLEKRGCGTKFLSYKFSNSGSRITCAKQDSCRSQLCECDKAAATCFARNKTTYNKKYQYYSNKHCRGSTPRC
Assay: chromogenic assay for inhibitors of recombinant human secreted phospholipase A2
Type: biochemical
Details: diheptanoyl thio-PC substrate, pH 7.5, 40° C. for 30 minutes, absorbance at 405 nanometers, triplicate
Description: The following chromogenic assay procedure was used to identify and evaluate inhibitors of recombinant human secreted phospholipase A2. The assay described herein has been adapted for high volume screening using 96 well microtiter plates. A general description of this assay method is found in the article, “Analysis of Human Synovial Fluid Phospholipase A2 on Short Chain Phosphatidylcholine-Mixed Micelles: Development of a Spectrophotometric Assay Suitable for a Microtiterplate Reader”, by Laure J. Reynolds, Lori L. Hughes, and Edward A Dennis, Analytical Biochemistry, 204, pp. 190-197, 1992 (the disclosure of which is incorporated herein by reference):
Adjust pH to 4.5 with acetic acid
DTNB—5,5′-dithiobis-2-nitrobenzoic acid
RACEMIC DIHEPTANOYL THIO—PC
racemic 1,2-bis(heptanoylthio)-1,2-dideoxy-sn-glycero-3-phosphorylcholine
TRITON X-100™ prepare at 6.249 mg/ml in reaction buffer to equal […].
A measured volume of racemic dipheptanoyl thio PC supplied in chloroform at a concentration of 100 mg/ml is taken to dryness and redissolved in 10 millimolar TRITON X-100™ nonionic detergent aqueous solution. Reaction Buffer is added to the solution, then DTNB to give the Reaction Mixture.
The reaction mixture thus obtained contains 1 mM diheptanoly thio-PC substrate, 0.29 mm Triton X-100™ detergent, and 0.12 mm DTMB in a buffered aqueous solution at pH 7.5.
1. Add 0.2 ml reaction mixture to all wells;
2. Add 10 ul test compound (or solvent blank) to appropriate wells, mix 20 seconds;
3. Add 50 nanograms of sPLA2 (10 microliters) to appropriate wells;
4. […]
5. Read absorbance of wells at 405 nanometers with an automatic plate reader.
Tests were done in triplicate. […] Compounds initially found to be active were re-assayed to confirm their activity and, if sufficiently active, IC50 values were determined. […] In all cases, % inhibition measured at 405 nanometers generated by enzyme reactions containing inhibitors relative to the uninhibited control reactions was determined. […] IC50 values were determined by plotting log concentration versus inhibition values in the range from 10-90% inhibition.

| IC50 [µM] | SMILES |
| --- | --- |
| 1.41 | CCc1sc2cccc(OCC(=O)O)c2c1C(=O)C(N)=O [Example 1, (3-aminooxalyl-2-ethylbenzo[b]thiophen-4-yloxy)acetic acid] |
| 64.8 | CCc1sc2cccc(OCC(=O)N[C@@H](CC(C)C)C(=O)OC)c2c1C(=O)C(N)=O [Example 2, 2(S)-[2-[(3-aminooxalyl-2-ethylbenzo [b]thiophen-4-yl)oxy]acetylamino]-4-methylpentanoic cid methylester] |
| 10.6 | CCc1sc2cccc(OCC(=O)N[C@@H](CC(C)C)C(=O)O)c2c1C(=O)C(N)=O [Example 3, 2(S)-[2-[(3-aminooxalyl-2-ethylbenzo [b]thiophen-4-yl)oxy]acetylamino]-4-methylpentanoic acid] |
